Measured values published in BindingDB's records for doi:10.1021/jm00046a020 (Purdue University, 1994).

Molecular target: Tyrosine-protein kinase transforming protein Src (Rous sarcoma virus)
Assay: Inhibition of in vitro protein-tyrosine kinase activity of p60v-src enzyme in presence of 5 uM ATP.

Row | SMILES | IC50
1 | Nc1cccc(-c2cc(=O)c3c(N)c(O)c(N)cc3o2)c1 [5,7-Diamino-2-(3-amino-phenyl)-6-hydroxy-chromen-4-one] | 38.4 µM
2 | Nc1ccc(-c2cc(=O)c3c(N)c(O)c(N)cc3o2)cc1 [5,7-Diamino-2-(4-amino-phenyl)-6-hydroxy-chromen-4-one] | > 50 µM
3 | Nc1ccc(-c2cc(=O)c3cc(N)c(O)c(N)c3o2)cc1 [6,8-Diamino-2-(4-amino-phenyl)-7-hydroxy-chromen-4-one] | > 50 µM
4 | Nc1ccc(-c2cc(=O)c3cc(N)cc(N)c3o2)cc1 [6,8-Diamino-2-(4-amino-phenyl)-chromen-4-one] | > 50 µM
5 | Nc1cccc(-c2cc(=O)c3cc(N)c(O)cc3o2)c1 [6-Amino-2-(3-amino-phenyl)-7-hydroxy-chromen-4-one] | > 50 µM
6 | Nc1cccc(-c2cc(=O)c3cc(N)ccc3o2)c1 [6-Amino-2-(3-amino-phenyl)-chromen-4-one] | > 50 µM
7 | Nc1ccc(-c2cc(O)c3c(=O)c(N)ccc-3o2)cc1 [6-Amino-2-(4-amino-phenyl)-5-hydroxy-chromen-4-one] | > 50 µM
8 | Nc1ccc(-c2cc(=O)c3cc(N)c(O)cc3o2)cc1 [6-Amino-2-(4-amino-phenyl)-7-hydroxy-chromen-4-one] | > 50 µM
9 | Nc1ccc(-c2cc(=O)c3cc(N)ccc3o2)cc1 [6-Amino-2-(4-amino-phenyl)-chromen-4-one] | 28.8 µM
10 | Nc1ccc(-c2cc(=O)c3c(O)ccc(N)c3o2)cc1 [8-Amino-2-(4-amino-phenyl)-5-hydroxy-chromen-4-one] | > 50 µM
11 | Nc1ccc(-c2cc(=O)c3cc(O)cc(N)c3o2)cc1 [8-Amino-2-(4-amino-phenyl)-6-hydroxy-chromen-4-one] | > 50 µM
12 | COc1cc(N)c2oc(-c3ccc(N)cc3)cc(=O)c2c1 [8-Amino-2-(4-amino-phenyl)-6-methoxy-chromen-4-one] | > 50 µM
13 | Nc1ccc(-c2cc(=O)c3ccc(O)c(N)c3o2)cc1 [8-Amino-2-(4-amino-phenyl)-7-hydroxy-chromen-4-one] | > 50 µM
14 | Nc1ccc(-c2cc(=O)c3cccc(N)c3o2)cc1 [8-Amino-2-(4-amino-phenyl)-chromen-4-one] | > 50 µM
